Where “and” joins values, the source holds several entries; their conditions need not be identical. Identical values can stand only once. Toxic doses and inconclusive results are not listed. Rule as the data show it: active = T/C of 150% or more; inactive = T/C below 125%.
Tested on: L1210 leukemia ip in BDF1 mice, survival T/C
Test: NCI In Vivo Anticancer Drug Screen. Data for tumor model L1210 Leukemia (intraperitoneal) in B6D2F1 (BDF1) mice
Conditions: endpoint: mean survival time, higher = longer survival
Summary of the method: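 Mice bearing the transplanted tumor received compound or vehicle. Survival of the treated group was divided by that of the vehicle-treated control group to give the ratio.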

[1] = dose: 100.0 mg/kg/injection, schedule: Q04DX002 (ip), vehicle: Klucel (hydroxypropylcellulose) (HPC)
[2] = dose: 200.0 mg/kg/injection, schedule: Q04DX002 (ip), vehicle: Klucel (hydroxypropylcellulose) (HPC)
[3] = dose: 400.0 mg/kg/injection, schedule: Q04DX002 (ip), vehicle: Klucel (hydroxypropylcellulose) (HPC)
[4] = dose: 100.0 mg/kg/injection, schedule: Q01DX001 (ip), vehicle: saline
[5] = dose: 25.0 mg/kg/injection, schedule: Q01DX009 (ip), vehicle: Klucel (hydroxypropylcellulose) (HPC)
[6] = dose: 50.0 mg/kg/injection, schedule: Q01DX009 (ip), vehicle: Klucel (hydroxypropylcellulose) (HPC)
[7] = dose: 50.0 mg/kg/injection, schedule: Q04DX003 (ip), vehicle: Klucel (hydroxypropylcellulose) (HPC)
[8] = dose: 100.0 mg/kg/injection, schedule: Q01DX009 (ip), vehicle: Klucel (hydroxypropylcellulose) (HPC)
[9] = dose: 100.0 mg/kg/injection, schedule: Q04DX003 (ip), vehicle: Klucel (hydroxypropylcellulose) (HPC)
[10] = dose: 50.0 mg/kg/injection, schedule: Q01DX001 (ip), vehicle: Klucel (hydroxypropylcellulose) (HPC)
[11] = dose: 100.0 mg/kg/injection, schedule: Q01DX001 (ip), vehicle: Klucel (hydroxypropylcellulose) (HPC)
[12] = dose: 100.0 mg/kg/injection, schedule: Q01DX001 (ip), vehicle: carboxymethylcellulose (CMC)
[13] = dose: 200.0 mg/kg/injection, schedule: Q01DX001 (ip), vehicle: carboxymethylcellulose (CMC)
[14] = dose: 400.0 mg/kg/injection, schedule: Q01DX001 (ip), vehicle: carboxymethylcellulose (CMC)
[15] = dose: 100.0 mg/kg/injection, schedule: Q04DX002 (ip), vehicle: saline with Tween-80
[16] = dose: 100.0 mg/kg/injection, schedule: Q04DX003 (ip), vehicle: saline with Tween-80
[17] = dose: 200.0 mg/kg/injection, schedule: Q04DX003 (ip), vehicle: saline with Tween-80
[18] = dose: 100.0 mg/kg/injection, schedule: Q01DX009 (ip), vehicle: saline

Measured: T/C

CSc1nc(N)c(N)c(N)n1
inactive: [1] 103 % of control | [2] 110 % of control | [3] 103 % of control

O=C(Nc1ccc(S(=O)(=O)NC2CCCCC2)cc1)OC1CCCCCCC1
inactive: [4] 89 % of control | dose: 200.0 mg/kg/injection, schedule: Q01DX001 (ip), vehicle: saline 94 % of control | dose: 400.0 mg/kg/injection, schedule: Q01DX001 (ip), vehicle: saline 96 % of control

CN(C)/N=C1\C(=O)Nc2ccccc21
inactive: [5] 101 % of control | [6] 117 % of control | [7] 104 % of control | [8] 102 % of control and 103 % of control | [9] 106 % of control | dose: 200.0 mg/kg/injection, schedule: Q04DX003 (ip), vehicle: Klucel (hydroxypropylcellulose) (HPC) 97 % of control | dose: 400.0 mg/kg/injection, schedule: Q04DX003 (ip), vehicle: Klucel (hydroxypropylcellulose) (HPC) 103 % of control

Cc1c(N)nc(N)nc1C(=O)O
inactive: dose: 25.0 mg/kg/injection, schedule: Q01DX001 (ip), vehicle: Klucel (hydroxypropylcellulose) (HPC) 108 % of control | [10] 93 % of control | [11] 105 % of control

COC1CCC2=C(C1)C(=O)CC1c3ccccc3CCN21 (stereo unspecified) (tested in a mixture with another compound)
inactive: dose: 6.25 mg/kg/injection, schedule: Q04DX003 (ip), vehicle: saline with Tween-80 97 % of control | dose: 12.5 mg/kg/injection, schedule: Q04DX003 (ip), vehicle: saline with Tween-80 107 % of control | dose: 25.0 mg/kg/injection, schedule: Q04DX003 (ip), vehicle: saline with Tween-80 102 % of control

CCOC(=O)C1CC2(c3ccccc3)C(=O)C1(c1ccccc1)C(c1ccccc1)=C2c1ccccc1 (stereo unspecified)
inactive: dose: 50.0 mg/kg/injection, schedule: Q01DX001 (ip), vehicle: carboxymethylcellulose (CMC) 100 % of control | [12] 94 % of control | [13] 100 % of control | [14] 97 % of control

CC(=O)Nc1ccc2c(ccc3cccc[n+]32)c1
inactive: dose: 10.0 mg/kg/injection, schedule: Q01DX001 (ip), vehicle: saline 93 % of control | dose: 20.0 mg/kg/injection, schedule: Q01DX001 (ip), vehicle: saline 98 % of control

COc1ccc(OC)c(-c2cc3c(OC)ccc(OC)c3[nH]2)c1
inactive: dose: 25.0 mg/kg/injection, schedule: Q04DX002 (ip), vehicle: saline with Tween-80 96 % of control | dose: 50.0 mg/kg/injection, schedule: Q04DX002 (ip), vehicle: saline with Tween-80 86 % of control | [15] 99 % of control

O=C(CCl)Nc1ccc(N=Nc2ccccc2)cc1
inactive: [5] 90 % of control | [6] 90 % of control

CC1(C)CC(C(N)=O)C(=O)O1 (stereo unspecified)
inactive: [16] 101 % of control | [17] 103 % of control | dose: 400.0 mg/kg/injection, schedule: Q04DX003 (ip), vehicle: saline with Tween-80 101 % of control

CN(C)CCN(Cc1ccccc1)c1ccccc1
inactive: [5] 98 % of control | dose: 25.0 mg/kg/injection, schedule: Q04DX003 (ip), vehicle: Klucel (hydroxypropylcellulose) (HPC) 95 % of control | [6] 102 % of control | [7] 103 % of control | [8] 106 % of control | [9] 103 % of control

Cc1cccc(C2=NCCN2)c1C
inactive: dose: 5.0 mg/kg/injection, schedule: Q01DX009 (ip), vehicle: saline with Tween-80 97 % of control | dose: 10.0 mg/kg/injection, schedule: Q01DX009 (ip), vehicle: saline with Tween-80 103 % of control | dose: 20.0 mg/kg/injection, schedule: Q01DX009 (ip), vehicle: saline with Tween-80 97 % of control

c1ccc([C]([Hg][C](=C(c2ccccc2)c2ccccc2)c2ccccc2)=C(c2ccccc2)c2ccccc2)cc1
inactive: [10] 95 % of control | [11] 88 % of control | dose: 200.0 mg/kg/injection, schedule: Q01DX001 (ip), vehicle: Klucel (hydroxypropylcellulose) (HPC) 90 % of control

CC(=O)N(NC(C)C)C(C)C
inactive: dose: 6.25 mg/kg/injection, schedule: Q01DX009 (ip), vehicle: saline 104 % of control | dose: 12.5 mg/kg/injection, schedule: Q01DX009 (ip), vehicle: saline 93 % of control | dose: 25.0 mg/kg/injection, schedule: Q01DX009 (ip), vehicle: saline 94 % of control | dose: 25.0 mg/kg/injection, schedule: Q04DX003 (ip), vehicle: saline 98 % of control | dose: 50.0 mg/kg/injection, schedule: Q01DX009 (ip), vehicle: saline 100 % of control | dose: 50.0 mg/kg/injection, schedule: Q04DX003 (ip), vehicle: saline 98 % of control | [18] 104 % of control | dose: 100.0 mg/kg/injection, schedule: Q04DX003 (ip), vehicle: saline 93 % of control

Nc1cc(Cl)c(N)c(N)n1
inactive: dose: 100.0 mg/kg/injection, schedule: Q01DX001 (ip), vehicle: saline with Tween-80 94 % of control | dose: 200.0 mg/kg/injection, schedule: Q01DX001 (ip), vehicle: saline with Tween-80 109 % of control | dose: 400.0 mg/kg/injection, schedule: Q01DX001 (ip), vehicle: saline with Tween-80 108 % of control

O=COCCN(C=O)c1ccc(C(=O)O)cc1
inactive: dose: 75.0 mg/kg/injection, schedule: Q01DX009 (ip), vehicle: Klucel (hydroxypropylcellulose) (HPC) 92 % of control | dose: 150.0 mg/kg/injection, schedule: Q01DX009 (ip), vehicle: Klucel (hydroxypropylcellulose) (HPC) 87 % of control | dose: 300.0 mg/kg/injection, schedule: Q01DX009 (ip), vehicle: Klucel (hydroxypropylcellulose) (HPC) 88 % of control

COC(=O)CCC(C)(C)[N+](=O)[O-]
inactive: [18] 113 % of control | dose: 200.0 mg/kg/injection, schedule: Q01DX009 (ip), vehicle: saline 104 % of control | dose: 400.0 mg/kg/injection, schedule: Q01DX009 (ip), vehicle: saline 102 % of control

O=Cc1nccc2c1[nH]c1ccccc12
inactive: dose: 25.0 mg/kg/injection, schedule: Q01DX009 (ip), vehicle: saline with Tween-80 96 % of control | dose: 50.0 mg/kg/injection, schedule: Q01DX009 (ip), vehicle: saline with Tween-80 97 % of control | dose: 100.0 mg/kg/injection, schedule: Q01DX009 (ip), vehicle: saline with Tween-80 86 % of control and 90 % of control

CC1(C)CC(N=Cc2ccccc2O)CC(C)(C)N1O.CC1(C)CC(N=Cc2ccccc2O)CC(C)(C)N1O.[Co]
inactive: [16] 89 % of control | [17] 92 % of control

Cc1ccnc(N=Cc2ccccc2)c1
inactive: dose: 50.0 mg/kg/injection, schedule: Q01DX001 (ip), vehicle: saline 89 % of control | [4] 101 % of control

O=C(O)c1ccccc1Nc1ccccc1[N+](=O)[O-]
inactive: dose: 100.0 mg/kg/injection, schedule: Q01DX005 (ip), vehicle: Klucel (hydroxypropylcellulose) (HPC) 90 % of control | [8] 87 % of control | [1] 93 % of control | dose: 200.0 mg/kg/injection, schedule: Q01DX005 (ip), vehicle: Klucel (hydroxypropylcellulose) (HPC) 94 % of control | dose: 200.0 mg/kg/injection, schedule: Q01DX009 (ip), vehicle: Klucel (hydroxypropylcellulose) (HPC) 102 % of control | [2] 100 % of control | dose: 400.0 mg/kg/injection, schedule: Q01DX005 (ip), vehicle: Klucel (hydroxypropylcellulose) (HPC) 105 % of control | dose: 400.0 mg/kg/injection, schedule: Q01DX009 (ip), vehicle: Klucel (hydroxypropylcellulose) (HPC) 94 % of control | [3] 96 % of control

OC1C(Br)CC(Br)C1O (stereo unspecified)
inactive: [15] 97 % of control | dose: 200.0 mg/kg/injection, schedule: Q04DX002 (ip), vehicle: saline with Tween-80 93 % of control | dose: 400.0 mg/kg/injection, schedule: Q04DX002 (ip), vehicle: saline with Tween-80 101 % of control

COc1ccc(C2=C(c3ccccc3)C(c3ccccc3)=C(c3ccc(OC)cc3)C2=O)cc1
inactive: [12] 89 % of control | [13] 89 % of control | [14] 91 % of control

Nc1nc(SCc2ccccc2)c2ncn(C3CCCO3)c2n1 (stereo unspecified)
inactive: dose: 25.0 mg/kg/injection, schedule: Q01DX Z (ip), vehicle: methylcellulose (MC) 101 % of control | dose: 50.0 mg/kg/injection, schedule: Q01DX Z (ip), vehicle: methylcellulose (MC) 120 % of control

— PubChem BioAssay AID248 (DTP/NCI, 2004)
